Assay results taken from patent publication US20130261077A1 (priority 2012, published 2013).

Target: T1, FimH-CRD (Escherichia coli, UniProt P08191)
T1 construct: The first 177 amino acids of the FimH protein; thrombin tag (printed as 'fusion protein with thrombin') (cleaved yes); made in house; host or cells: bacteria (pET21b plasmid)
Assay: Competitive binding assay by fluorescence polarization, assay 2 (compounds prepared by robotics, plates frozen and thawed)
Protocol: The first 177 amino acids of the FimH protein were expressed as a fusion protein with thrombin in a pET21b plasmid in bacteria. This FimH protein sequence contains the carbohydrate recognition domain (CRD) and shall be termed FimH-CRD. Following bacterial expression of the protein, the FimH-CRD protein was purified to homogeneity and the thrombin tag removed by protease cleavage. A competitive binding assay by fluorescence polarization was performed using 5 nM of the Alexa 647 mannoside probe and 60 nM of the FimH-CRD. The samples are assayed in a low volume 384 well microtiter plate in a final volume of 20 μl. The final assay buffer conditions are the following, 50 mM Tris-Cl, ph 7.0, 100 mM NaCl, 1 mM EDTA, 5 mM β-mercaptoethanol, 0.05% BSA and 2.5% DMSO. Two assays are performed for FimH, termed assay 1 or assay 2. The assay conditions are the same for both assays except the following: assay 1 has compounds prepared by manual dilution in a serial dilution factor with 12-point dose response while assay 2 has compounds prepared by a robotics system also through a serial dilution factor (12 point dose response) and initially prepared in duplicate in 384 well-Corning polypropylene round bottom plates. The assay 2 plates have compound which is then frozen and must be thawed prior to use. Initially the Alexa 647 probe and the FimH-CRD are added to the assay buffer and then 0.5 μl of test compound (assay 1 or 2) between 0.4 nM to 75 μM final concentration are added (12 point titration with 3-fold serial dilution). Control wells for the Alexa 647 probe are prepared with the same conditions except for the addition of the FimH-CRD protein. Plates are then incubated for 5 hrs at room temperature in the dark and under humid conditions to prevent drying. Plates are read using the SpectraMax Paradigm multi-mode plate reader and the appropriate fluorescent polarization detection cartridge (Alexa-647).
Alexa 647 mannoside probe is prepared using the similar procedure reported for FAM mannoside (Han, Z. et. al., 2010, J. Med. Chem., 53, 4779) and is described in the scheme below.
To a blue colored stirred solution of (2S,3S,4S,5S,6R)-2-(4-aminobutoxy)-6-(hydroxymethyl)tetrahydropyran-3,4,5-triol (2.21 mg, 0.009 mmol) and the (2E)-2-[(2E,4E)-5-[3,3-dimethyl-5-sulfonato-1-(3-sulfonatopropyl)indol-1-ium-2-yl]penta-2,4-dienylidene]-3-[6-(2,5-dioxopyrrolidin-1-yl)oxy-6-oxo-hexyl]-3-methyl-1-(3-sulfonatopropyl)indoline-5-sulfonate (Potassium Ion (3)) (4.9 mg, 0.0044 mmol) in DMF (44 μL) is added Et3N (5.4 mg, 7.0 μL, 0.053 mmol) at RT. The solution is stirred at room temperature over night, concentrated, dissolved in water and purified on 12 g C-18 silica gel cartridge on Isolera system using acetonitrile in water (0 to 40%, 10 CV) and followed by lyophilization to afford Alexa 647 mannoside probe (3.3 mg, 34%) as deep blue solid.
The Kd values of the compounds are determined from dose response curves using twelve concentrations per compound in duplicate. Curves are fitted to data points using Fluorescence Polarization competitive displacement analysis, and Kds are interpolated from the resulting curves using GraphPad Prism software, version […] (GraphPad software Inc., San Diego, Calif., USA).

T1 sequence (P08191 22-177): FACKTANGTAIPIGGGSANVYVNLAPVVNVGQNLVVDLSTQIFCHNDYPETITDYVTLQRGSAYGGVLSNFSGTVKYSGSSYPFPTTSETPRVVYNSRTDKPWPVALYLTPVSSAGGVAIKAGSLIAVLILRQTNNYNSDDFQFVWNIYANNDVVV

Compound | Kd
OC[C@H]1O[C@H](c2cccc(C/C=C/c3ccccc3)c2)[C@@H](O)[C@@H](O)[C@@H]1O [Compound 96, (2R,3S,4R,5S,6R)-2-[3-[(E)-Cinnamyl]phenyl]-6-(hydroxymethyl)tetrahydropyran-3,4,5-triol] | 29 ± 2.3 nM
CNC(=O)c1cc(CCCc2cccc([C@H]3O[C@H](CO)[C@@H](O)[C@H](O)[C@@H]3O)c2)cc(C(=O)NC)c1 [Compound 97, N1,N3-Dimethyl-5-[3-[3-[(2R,3S,4R,5S,6R)-3,4,5-trihydroxy-6-(hydroxymethyl)tetrahydropyran-2-yl]phenyl]propyl]benzene-1,3-dicarboxamide] | 31.6 ± 17.5 nM
OC[C@H]1O[C@H](c2cccc(CCCc3cc(Cl)cc(Cl)c3)c2)[C@@H](O)[C@@H](O)[C@@H]1O [Compound 98, (2R,3S,4R,5S,6R)-2-[3-[3-(3,5-Dichlorophenyl)propyl]phenyl]-6-(hydroxymethyl)tetrahydropyran-3,4,5-triol] | 27.8 ± 2.1 nM
OC[C@H]1O[C@H](c2cccc(CCCc3ccccc3)c2)[C@@H](O)[C@@H](O)[C@@H]1O [Compound 99] | 26.4 ± 1.1 nM
COC(=O)c1ccc(CCc2ccc([C@H]3O[C@H](CO)[C@@H](O)[C@H](O)[C@@H]3O)cc2)cc1 [Compound 100, Methyl 4-[2-[4-[(2R,3S,4R,5S,6R)-3,4,5-trihydroxy-6-(hydroxymethyl)tetrahydropyran-2-yl]phenyl]ethyl]benzoate] | 12 ± 3.1 nM
COC(=O)c1cccc(CCc2cccc([C@H]3O[C@H](CO)[C@@H](O)[C@H](O)[C@@H]3O)c2)c1 [Compound 101, Methyl 3-[2-[3-[(2R,3S,4R,5S,6R)-3,4,5-trihydroxy-6-(hydroxymethyl)tetrahydropyran-2-yl]phenyl]ethyl]benzoate] | 12.9 ± 9.7 nM
OC[C@H]1O[C@H](c2cccc(CCc3ccccc3)c2)[C@@H](O)[C@@H](O)[C@@H]1O [Compound 102, (2R,3S,4R,5S,6R)-2-(Hydroxymethyl)-6-[3-(2-phenylethyl)phenyl]tetrahydropyran-3,4,5-triol] | 22 ± 3.4 nM
COC(=O)c1ccc(CCc2cccc([C@H]3O[C@H](CO)[C@@H](O)[C@H](O)[C@@H]3O)c2)cc1 [Compound 103, Methyl 4-[2-[3-[(2R,3S,4R,5S,6R)-3,4,5-trihydroxy-6-(hydroxymethyl)tetrahydropyran-2-yl]phenyl]ethyl]benzoate] | 9.7 ± 4.5 nM
Cc1nnc(-c2ccc(-c3cccc([C@H]4O[C@H](CO)[C@@H](O)[C@H](O)[C@@H]4O)c3C)cc2)o1 [Compound 104, (2R,3S,4R,5S,6R)-2-(Hydroxymethyl)-6-[2-methyl-3-[4-(5-methyl-1,3,4-oxadiazol-2-yl)phenyl]phenyl]tetrahydropyran-3,4,5-triol] | 8.5 ± 3.1 nM
CCc1c(-c2ccc(-c3nnc(C)o3)cc2)cccc1[C@H]1O[C@H](CO)[C@@H](O)[C@H](O)[C@@H]1O [Compound 105, (2R,3S,4R,5S,6R)-2-[2-Ethyl-3-[4-(5-methyl-1,3,4-oxadiazol-2-yl)phenyl]phenyl]-6-(hydroxymethyl)tetrahydropyran-3,4,5-triol] | 28.1 ± 3.9 nM
Cc1nnc(-c2ccc(-c3cccc([C@H]4O[C@H](CO)[C@@H](O)[C@H](O)[C@@H]4O)c3F)cc2)o1 [Compound 106, (2R,3S,4R,5S,6R)-2-[2-Fluoro-3-[4-(5-methyl-1,3,4-oxadiazol-2-yl)phenyl]phenyl]-6-(hydroxymethyl)tetrahydropyran-3,4,5-triol] | 23.4 ± 7.5 nM
COc1cc(-c2nnc(C)o2)ccc1-c1cccc([C@H]2O[C@H](CO)[C@@H](O)[C@H](O)[C@@H]2O)c1C [Compound 107, (2R,3S,4R,5S,6R)-2-(hydroxymethyl)-6-[3-[2-methoxy-4-(5-methyl-1,3,4-oxadiazol-2-yl)phenyl]-2-methyl-phenyl]tetrahydropyran-3,4,5-triol] | 9.8 ± 0.6 nM
Cc1c(-c2ccc(-c3ccn(C)n3)cc2)cccc1[C@H]1O[C@H](CO)[C@@H](O)[C@H](O)[C@@H]1O [Compound 108, (2R,3S,4R,5S,6R)-2-(Hydroxymethyl)-6-[2-methyl-3-[4-(1-methylpyrazol-3-yl)phenyl]phenyl]tetrahydropyran-3,4,5-triol] | 7.9 ± 2.9 nM
Cc1c(-c2ccc(S(C)(=O)=O)cc2)cccc1[C@H]1O[C@H](CO)[C@@H](O)[C@H](O)[C@@H]1O [Compound 109, (2R,3S,4R,5S,6R)-2-(Hydroxymethyl)-6-[2-methyl-3-(4-methylsulfonylphenyl)phenyl]tetrahydropyran-3,4,5-triol] | 14.4 ± 6.2 nM
Cc1c(-c2cccc(S(C)(=O)=O)c2)cccc1[C@H]1O[C@H](CO)[C@@H](O)[C@H](O)[C@@H]1O [Compound 110, (2R,3S,4R,5S,6R)-2-(Hydroxymethyl)-6-[2-methyl-3-(3-methylsulfonylphenyl)phenyl]tetrahydropyran-3,4,5-triol] | 28.9 ± 4.5 nM
CN(C)Cc1nnc(-c2ccc(-c3cccc([C@H]4O[C@H](CO)[C@@H](O)[C@H](O)[C@@H]4O)c3)cc2)o1 [Compound 113, (2R,3S,4R,5S,6R)-2-[3-[4-[5-[(Dimethylamino)methyl]-1,3,4-oxadiazol-2-yl]phenyl]phenyl]-6-(hydroxymethyl)tetrahydropyran-3,4,5-triol] | 20.7 ± 4.7 nM
CC(C)(C)OC(=O)NCc1nnc(-c2ccc(-c3cccc([C@H]4O[C@H](CO)[C@@H](O)[C@H](O)[C@@H]4O)c3)cc2)o1 [Compound 115, tert-Butyl N-[[5-[4-[3-[(2R,3S,4R,5S,6R)-3,4,5-trihydroxy-6-(hydroxymethyl)tetrahydropyran-2-yl]phenyl]phenyl]-1,3,4-oxadiazol-2-yl]methyl]carbamate] | 24.2 ± 2.9 nM
Cc1cnc(-c2ccc(-c3cccc([C@H]4O[C@H](CO)[C@@H](O)[C@H](O)[C@@H]4O)c3)cc2)o1 [Compound 117, (2R,3S,4R,5S,6R)-2-(hydroxymethyl)-6-[3-[4-(5-methyloxazol-2-yl)phenyl]phenyl]tetrahydropyran-3,4,5-triol] | 20.9 ± 6.7 nM
CC(C)c1nnc(-c2ccc(-c3cccc([C@H]4O[C@H](CO)[C@@H](O)[C@H](O)[C@@H]4O)c3)cc2)o1 [Compound 118, (2R,3S,4R,5S,6R)-2-(hydroxymethyl)-6-[3-[4-(5-isopropyl-1,3,4-oxadiazol-2-yl)phenyl]phenyl]tetrahydropyran-3,4,5-triol] | 13.1 ± 0.2 nM
OC[C@H]1O[C@H](c2cccc(-c3ccc(-c4cnco4)cc3)c2)[C@@H](O)[C@@H](O)[C@@H]1O [Compound 119, (2R,3S,4R,5S,6R)-2-(hydroxymethyl)-6-[3-(4-oxazol-5-ylphenyl)phenyl]tetrahydropyran-3,4,5-triol] | 19.5 ± 8.8 nM
OC[C@H]1O[C@H](c2cccc(-c3ccc(-c4nnc(-c5ccccn5)o4)cc3)c2)[C@@H](O)[C@@H](O)[C@@H]1O [Compound 120, (2R,3S,4R,5S,6R)-2-(hydroxymethyl)-6-[3-[4-[5-(2-pyridyl)-1,3,4-oxadiazol-2-yl]phenyl]phenyl]tetrahydropyran-3,4,5-triol] | 12.8 ± 2.1 nM
Cc1ccc(-c2nnc(-c3ccc(-c4cccc([C@H]5O[C@H](CO)[C@@H](O)[C@H](O)[C@@H]5O)c4)cc3)o2)o1 [Compound 121, (2R,3S,4R,5S,6R)-2-(hydroxymethyl)-6-[3-[4-[5-(5-methyl-2-furyl)-1,3,4-oxadiazol-2-yl]phenyl]phenyl]tetrahydropyran-3,4,5-triol] | 13.1 ± 0.9 nM
Cn1ccc(-c2ccc(-c3cccc([C@H]4O[C@H](CO)[C@@H](O)[C@H](O)[C@@H]4O)c3)cc2)n1 [Compound 122, (2R,3S,4R,5S,6R)-2-(hydroxymethyl)-6-[3-[4-(1-methylpyrazol-3-yl)phenyl]phenyl]tetrahydropyran-3,4,5-triol] | 27.6 ± 7.4 nM
Cc1nnc(-c2cccc(-c3cccc([C@H]4O[C@H](CO)[C@@H](O)[C@H](O)[C@@H]4O)c3)c2)o1 [Compound 123, (2R,3S,4R,5S,6R)-2-(hydroxymethyl)-6-[3-[3-(5-methyl-1,3,4-oxadiazol-2-yl)phenyl]phenyl]tetrahydropyran-3,4,5-triol] | 37.1 ± 8.5 nM
